Test results published in patent publication EP0423419B1, “Inhibitive agent against activity of alpha-amylase” (MITSUI NORIN CO., LTD., priority 1989, dated 1991).

target: T1, α-amylase prepared from human saliva (Homo sapiens, UniProt P0DUB6); assay: Inhibition of the activity of α-amylase (reducing sugar from soluble starch, Bernfeld method); assay type: biochemical; details: not given
T1 construct: α-amylase prepared from human saliva; purchased Sigma Co; host or cells: human saliva
T1 sequence (P0DUB6 16-511): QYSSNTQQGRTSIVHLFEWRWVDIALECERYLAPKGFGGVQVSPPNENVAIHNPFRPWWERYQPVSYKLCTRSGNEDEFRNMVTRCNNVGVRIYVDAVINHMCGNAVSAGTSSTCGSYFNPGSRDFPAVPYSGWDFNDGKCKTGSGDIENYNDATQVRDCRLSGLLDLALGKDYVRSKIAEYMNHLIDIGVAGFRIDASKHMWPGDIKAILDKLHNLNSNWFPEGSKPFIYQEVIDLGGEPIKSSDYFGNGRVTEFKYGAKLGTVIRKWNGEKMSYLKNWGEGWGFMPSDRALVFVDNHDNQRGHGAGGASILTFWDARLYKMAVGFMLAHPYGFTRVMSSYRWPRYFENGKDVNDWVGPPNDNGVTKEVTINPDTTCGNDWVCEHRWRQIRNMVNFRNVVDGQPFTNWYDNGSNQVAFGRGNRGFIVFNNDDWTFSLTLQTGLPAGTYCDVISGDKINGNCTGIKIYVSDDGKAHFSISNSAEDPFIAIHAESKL

Row | Structure (SMILES) | IC50 [µM]
1 | O=C(O)c1cc(O)c(O)c(O)c1 [Gallic acid, reference compound] | > 1000

same assay, conditions: human saliva α-amylase, 10 min preincubation at 37°C, soluble starch 2.0 mg/ml; read-out: Concentration for 50% inhibition

Row | IC50 [µM] | Structure (SMILES)
2 | > 1000 | Oc1cc(O)c2c(c1)O[C@H](c1cc(O)c(O)c(O)c1)[C@H](O)C2 [Epicagallcatechin, (-)epigallocatechin]
3 | > 1000 | Oc1cc(O)c2c(c1)O[C@H](c1ccc(O)c(O)c1)[C@H](O)C2 [Epicatechin, (-)epicatechin]
4 | 1.7 | O=C(O[C@@H]1Cc2c(O)cc(O)cc2O[C@@H]1c1cc(O)c(O)c2c(=O)c(O)cc([C@H]3Oc4cc(O)cc(O)c4C[C@H]3O)cc12)c1cc(O)c(O)c(O)c1 [Theaflavin monogallate B, theaflavin monogallate B]
5 | 130 | O=C(O[C@@H]1Cc2c(O)cc(O)cc2O[C@@H]1c1ccc(O)c(O)c1)c1cc(O)c(O)c(O)c1 [Epicatechin gallate, (-)epicatechin gallate]
6 | 1 | O=C(O[C@@H]1Cc2c(O)cc(O)cc2O[C@@H]1c1cc(O)c(=O)c2c(O)c(O)cc([C@H]3Oc4cc(O)cc(O)c4C[C@H]3O)c2c1)c1cc(O)c(O)c(O)c1 [Theaflavin monogallate A, theaflavin monogallate A]
7 | 18 | O=c1c(O)cc([C@H]2Oc3cc(O)cc(O)c3C[C@H]2O)cc2c([C@H]3Oc4cc(O)cc(O)c4C[C@H]3O)cc(O)c(O)c12 [Free theaflavin, free theaflavin]

Row | Structure (SMILES) | IC50 [µM]
8 | O=C(O[C@@H]1Cc2c(O)cc(O)cc2O[C@@H]1c1cc(O)c(O)c(O)c1)c1cc(O)c(O)c(O)c1 [Epigallocatechin gallate, (-)epigallocatechin gallate] | 260

tested on: not listed separately; assay: Acute toxicity in mice (LD50); details: mouse, in vivo, ip; intraperitoneal administration, ICR mice, Van der Waerden method; read-out: LD₅₀
Method: An animal test was conducted by using ICR mice as the test animals to examine the acute toxicity of the inventive inhibitive agent against the activity of α-amylase. The values of LD₅₀ calculated according to the Van der Waerdrn method within the confidence limit were: 2412 mg/kg in the oral administration of the same crude mixture of catechin compounds as used in Example 2; 55.2 mg/kg in the intraperitoneal administration of a crude mixture of theaflavin compounds of the composition shown in Table 5 below; and 150 mg/kg in the intraperitoneal administration of epigallocatechin gallate.

Row | Structure (SMILES) | LD50 [mg/kg]
9 | O=C(O[C@@H]1Cc2c(O)cc(O)cc2O[C@@H]1c1cc(O)c(O)c(O)c1)c1cc(O)c(O)c(O)c1 [Epigallocatechin gallate, (-)epigallocatechin gallate] | 150
